Experimental data: the CheMixHub viscosity set
Several values for one entry are separate records, joined by “and”; a condition that tells them apart may be missing. Equal entries are not always repeated.

Assays:
[1] = xn = mol fraction of the nth substance listed

COCC(C)O (stereo not given)
viscosity
Settings | 298.15 K | 303.15 K | 308.15 K | 313.15 K | 318.15 K
101 kPa | 1.55 mPa·s | 1.3 mPa·s | 1.22 mPa·s | 1.11 mPa·s | 1.04 mPa·s
101.33 kPa | 1.671 mPa·s and 1.723 mPa·s and 1.694 mPa·s | – | 1.374 mPa·s and 1.329 mPa·s | – | 1.09 mPa·s and 1.078 mPa·s

Cc1ccnc(C)c1
101 kPa
Settings | viscosity
303 K | 0.7893 mPa·s and 0.7892 mPa·s
313 K | 0.6863 mPa·s and 0.686 mPa·s
323 K | 0.6133 mPa·s and 0.6129 mPa·s

ClC(Cl)=C(Cl)Cl
Settings | viscosity
293.15 K, 101.33 kPa | 0.8 mPa·s
298 K, 101 kPa | 1.02 mPa·s
298.15 K, 101 kPa | 0.838 mPa·s and 0.8486 mPa·s and 0.8426 mPa·s
298.15 K, 101.33 kPa | 0.846 mPa·s
303 K, 101 kPa | 0.97 mPa·s
303.15 K, 101 kPa | 0.7976 mPa·s and 0.798 mPa·s and 0.814 mPa·s
303.15 K, 101.3 kPa | 0.799 mPa·s
303.15 K, 101.32 kPa | 0.7976 mPa·s
308 K, 101 kPa | 0.92 mPa·s
313 K, 101 kPa | 0.88 mPa·s
313.15 K, 101.33 kPa | 0.731 mPa·s and 0.68 mPa·s

O=[N+]([O-])c1ccccc1
viscosity
Settings | 293.15 K | 298.15 K | 303.15 K | 308.15 K | 313.15 K | 318.15 K | 323.15 K
100 kPa | 2.087 mPa·s | 1.909 mPa·s | 1.755 mPa·s | – | 1.501 mPa·s | 1.397 mPa·s | 1.303 mPa·s
101 kPa | 1.931 mPa·s | – | – | 1.457 mPa·s and 1.242 mPa·s and 1.601 mPa·s | 1.402 mPa·s | – | 1.192 mPa·s
101.3 kPa | – | 1.773 mPa·s | – | – | 1.373 mPa·s | – | –
101.33 kPa | 2.024 mPa·s and 2.079 mPa·s and 2.079 mPa·s | – | 1.665 mPa·s | – | – | – | –

c1ccccc1
Settings | viscosity
293.15 K, 100 kPa | 0.641 mPa·s and 0.656 mPa·s
293.15 K, 101 kPa | 0.644 mPa·s and 0.629 mPa·s and 0.646 mPa·s
293.15 K, 101.33 kPa | 0.645 mPa·s and 0.645 mPa·s
293.16 K, 101 kPa | 0.652 mPa·s
294.35 K, 101.33 kPa | 0.6559 mPa·s
298 K, 101 kPa | 0.6139 mPa·s
298 K, 101.33 kPa | 0.596 mPa·s
298.15 K, 100 kPa | 0.6121 mPa·s
298.15 K, 101.3 kPa | 0.609 mPa·s
303.15 K, 101.32 kPa | 0.576 mPa·s
303.95 K, 101.33 kPa | 0.5989 mPa·s
304.85 K, 101.33 kPa | 0.5927 mPa·s
307.35 K, 101.33 kPa | 0.53 mPa·s
307.4 K, 101.33 kPa | 0.309 mPa·s
312.95 K, 101.33 kPa | 0.5173 mPa·s
313 K, 101 kPa | 0.4925 mPa·s and 0.4923 mPa·s and 0.4923 mPa·s
313 K, 101.33 kPa | 0.489 mPa·s
313.15 K, 100 kPa | 0.491 mPa·s
313.25 K, 101.33 kPa | 0.5324 mPa·s
318 K, 101 kPa | 0.4788 mPa·s
318 K, 101.3 kPa | 0.4765 mPa·s
318.15 K, 101.33 kPa | 0.553 mPa·s and 0.553 mPa·s
322.75 K, 101.33 kPa | 0.4749 mPa·s
322.85 K, 101.33 kPa | 0.4803 mPa·s
323.15 K, 100 kPa | 0.435 mPa·s
323.15 K, 101 kPa | 0.438 mPa·s and 0.4367 mPa·s and 0.434 mPa·s

CCCCCCCC + c1ccccc1
[1], 298.15 K, 101.33 kPa
Settings | viscosity [mPa·s]
x1 = 0.04472 | 0.5829
x1 = 0.09184 | 0.5595
x1 = 0.1715 | 0.5352
x1 = 0.2954 | 0.5061
x1 = 0.4088 | 0.4934
x1 = 0.4907 | 0.4904
x1 = 0.5855 | 0.4924
x1 = 0.739 | 0.4929
x1 = 0.928 | 0.5124

Cc1ccnc(C)c1 + c1ccccc1
viscosity [mPa·s], [1], 101 kPa
Settings | x1 = 0.1033 | x1 = 0.1926 | x1 = 0.3022 | x1 = 0.397 | x1 = 0.492 | x1 = 0.6027 | x1 = 0.697 | x1 = 0.8005 | x1 = 0.8995
303 K | 0.5693 | 0.5838 | 0.6013 | 0.6187 | 0.6483 | 0.6749 | 0.6927 | 0.7197 | 0.7508
313 K | 0.5048 | 0.5147 | 0.5305 | 0.5497 | 0.5727 | 0.5908 | 0.6073 | 0.6318 | 0.6679
323 K | 0.4489 | 0.4582 | 0.4749 | 0.4967 | 0.5102 | 0.5277 | 0.5424 | 0.5752 | 0.5919

ClC(Cl)=C(Cl)Cl + c1ccccc1
[1]
Settings | viscosity [mPa·s]
298.15 K, 101 kPa, x2 = 0.0876 | 0.8015
298.15 K, 101 kPa, x2 = 0.1609 | 0.771
298.15 K, 101 kPa, x2 = 0.3555 | 0.7018
298.15 K, 101 kPa, x2 = 0.452 | 0.6743
298.15 K, 101 kPa, x2 = 0.6216 | 0.6351
298.15 K, 101 kPa, x2 = 0.6602 | 0.6286
298.15 K, 101 kPa, x2 = 0.708 | 0.6209
298.15 K, 101 kPa, x2 = 0.781 | 0.6115
298.15 K, 101 kPa, x2 = 0.8752 | 0.6029
298.15 K, 101 kPa, x2 = 0.9037 | 0.6011
303.15 K, 101.33 kPa, x1 = 0.1913 | 0.577
303.15 K, 101.33 kPa, x1 = 0.2749 | 0.584
303.15 K, 101.33 kPa, x1 = 0.3761 | 0.605
303.15 K, 101.33 kPa, x1 = 0.4668 | 0.624
303.15 K, 101.33 kPa, x1 = 0.5756 | 0.648
303.15 K, 101.33 kPa, x1 = 0.6664 | 0.675
303.15 K, 101.33 kPa, x1 = 0.7757 | 0.712
303.15 K, 101.33 kPa, x1 = 0.8828 | 0.746

O=[N+]([O-])c1ccccc1 + c1ccccc1
[1], 101 kPa
Settings | viscosity [mPa·s]
298.15 K, x2 = 0.2096 | 1.417
298.15 K, x2 = 0.4874 | 1.017
298.15 K, x2 = 0.8636 | 0.681
303.15 K, x1 = 0.0887 | 0.6013
303.15 K, x1 = 0.1796 | 0.654
303.15 K, x1 = 0.2737 | 0.7103
303.15 K, x1 = 0.3694 | 0.7841
303.15 K, x1 = 0.4673 | 0.865
303.15 K, x1 = 0.5682 | 0.9589
303.15 K, x1 = 0.6723 | 1.075
303.15 K, x1 = 0.7788 | 1.218
303.15 K, x1 = 0.8874 | 1.39

ClC(Cl)=C(Cl)Cl + c1ccncc1
[1], 298.15 K, 101 kPa
Settings | viscosity [mPa·s]
x1 = 0.0296 | 0.8879
x1 = 0.1254 | 0.8794
x1 = 0.1862 | 0.875
x1 = 0.2246 | 0.8719
x1 = 0.2887 | 0.8657
x1 = 0.4448 | 0.8496
x1 = 0.5638 | 0.8411
x1 = 0.6271 | 0.837
x1 = 0.7214 | 0.8324
x1 = 0.842 | 0.8315
x1 = 0.9127 | 0.8331
x1 = 0.9559 | 0.8373
